Measurements as given in patent US20230271950A1, “ANTIBACTERIAL PICOLINAMIDE COMPOUNDS” (University of Notre Dame Du Lac, priority 2020, published 2023).
In brackets after ≈: the same amount, converted by molar mass. Where two headings read alike, the source gives them in different places.

Legend:
C. difficile = test: MIC by broth microdilution against C. difficile strains; assay type: cell-based, Clostridioides difficile; conditions: for MIC: Table 9, read-out: MIC
MRSA (NRS70, NRS119) = test: MIC against MRSA strains; assay type: cell-based, Staphylococcus aureus; conditions: Staphylococcus aureus, read-out: MIC
S. aureus ATCC29213 = test: MIC against MSSA; assay type: cell-based, Staphylococcus aureus; conditions: Staphylococcus aureus; S. aureus ATCC29213; Table 1; read-out: MIC
E. faecium NCTC7171 = test: MIC against E. faecium; assay type: cell-based, Enterococcus faecium; conditions: Enterococcus faecium; E. faecium NCTC7171; Table 1; read-out: MIC
Bacteroides fragilis = test: MIC against gut bacterium Bacteroides fragilis; assay type: cell-based; conditions: Bacteroides fragilis, Bacteroides fragilis strain HM-709, read-out: MIC
Bifidobacterium longum = test: MIC against gut bacterium Bifidobacterium longum; assay type: cell-based; conditions: Bifidobacterium longum, Bifidobacterium longum strain HM-846, read-out: MIC
Corynebacterium spp. = test: MIC against gut bacterium Corynebacterium spp.; assay type: cell-based; conditions: Corynebacterium, Corynebacterium spp. strain HM-784
Fusobacterium nucleatum = test: MIC against gut bacterium Fusobacterium nucleatum; assay type: cell-based; conditions: Fusobacterium nucleatum, Fusobacterium nucleatum strain HM-992, read-out: MIC
Lactobacillus reuteri = test: MIC against gut bacterium Lactobacillus reuteri; assay type: cell-based
Lactobacillus gasseri = test: MIC against gut bacterium Lactobacillus gasseri; assay type: cell-based
Veillonella sp. HM-49 = test: MIC against gut bacterium Veillonella sp.; assay type: cell-based
Eubacterium sp. = test: MIC against gut bacterium Eubacterium sp.; assay type: cell-based; conditions: Eubacterium, Eubacterium sp. strain HM-178, read-out: MIC

CCc1c(Cl)c(O)c(Cl)c(O)c1C(=O)O[C@H]1[C@H](O)[C@H](OC)[C@H](OC/C2=C\C=C\C[C@H](O)/C(C)=C/[C@H](CC)[C@@H](O[C@@H]3OC(C)(C)[C@@H](OC(=O)C(C)C)[C@H](O)[C@@H]3O)/C(C)=C/C(C)=C/C[C@@H]([C@@H](C)O)OC2=O)O[C@@H]1C [FDX, fidaxomicin, reference compound]
MIC (C. difficile; Clostridioides difficile, C. difficile NR-32882): 0.06 µg/mL (≈ 0.0567 µM)
MIC (C. difficile; Clostridioides difficile, C. difficile NR-32884): 0.03 µg/mL (≈ 0.0284 µM)
MIC (C. difficile; Clostridioides difficile, C. difficile NR-32885): 0.25 µg/mL (≈ 0.236 µM)
MIC (C. difficile; Clostridioides difficile, C. difficile NR-32886): 0.03 µg/mL (≈ 0.0284 µM)
MIC (C. difficile; Clostridioides difficile, C. difficile NR-32888): 0.03 µg/mL (≈ 0.0284 µM)
MIC (C. difficile; Clostridioides difficile, C. difficile NR-32889): 0.25 µg/mL (≈ 0.236 µM)
MIC (C. difficile; Clostridioides difficile, C. difficile NR-32890): 0.06 µg/mL (≈ 0.0567 µM)
MIC (C. difficile; Clostridioides difficile, C. difficile NR-32891): 0.03 µg/mL (≈ 0.0284 µM)
MIC (C. difficile; Clostridioides difficile, C. difficile NR-32892): 0.03 µg/mL (≈ 0.0284 µM)
MIC (C. difficile; Clostridioides difficile, C. difficile NR-32895): 0.03 µg/mL (≈ 0.0284 µM)
MIC (C. difficile; Clostridioides difficile, C. difficile NR-32896): 0.03 µg/mL (≈ 0.0284 µM)
MIC (C. difficile; Clostridioides difficile, C. difficile NR-32897): 0.03 µg/mL (≈ 0.0284 µM)
MIC (C. difficile; Clostridioides difficile, C. difficile NR-32900): 0.03 µg/mL (≈ 0.0284 µM)
MIC (C. difficile; Clostridioides difficile, C. difficile NR-32903): 0.03 µg/mL (≈ 0.0284 µM)
MIC (C. difficile; Clostridioides difficile, C. difficile NR-32904): 0.03 µg/mL (≈ 0.0284 µM)
MIC (C. difficile; Clostridioides difficile, C. difficile NR-49277): 0.06 µg/mL (≈ 0.0567 µM)
MIC (C. difficile; Clostridioides difficile, C. difficile NR-49278): 0.25 µg/mL (≈ 0.236 µM)
MIC (C. difficile; Clostridioides difficile, C. difficile NR-49279): 0.25 µg/mL (≈ 0.236 µM)
MIC (C. difficile; Clostridioides difficile, C. difficile NR-49281): 0.25 µg/mL (≈ 0.236 µM)
MIC (C. difficile; Clostridioides difficile, C. difficile NR-49282): 0.06 µg/mL (≈ 0.0567 µM)
MIC (C. difficile; Clostridioides difficile, C. difficile NR-49283): 0.03 µg/mL (≈ 0.0284 µM)
MIC (C. difficile; Clostridioides difficile, C. difficile NR-49284): 0.06 µg/mL (≈ 0.0567 µM)
MIC (C. difficile; Clostridioides difficile, C. difficile NR-49285): 0.06 µg/mL (≈ 0.0567 µM)
MIC (C. difficile; Clostridioides difficile, C. difficile NR-49286): 0.25 µg/mL (≈ 0.236 µM)
MIC (C. difficile; Clostridioides difficile, C. difficile NR-49287): 0.25 µg/mL (≈ 0.236 µM)
MIC (C. difficile; Clostridioides difficile, C. difficile NR-49288): 0.25 µg/mL (≈ 0.236 µM)
MIC (C. difficile; Clostridioides difficile, C. difficile NR-49289): 0.03 µg/mL (≈ 0.0284 µM)
MIC (C. difficile; Clostridioides difficile, C. difficile NR-49290): 0.06 µg/mL (≈ 0.0567 µM)
MIC (C. difficile; Clostridioides difficile, C. difficile NR-49291): 0.25 µg/mL (≈ 0.236 µM)
MIC (C. difficile; Clostridioides difficile, C. difficile NR-49293): ≤ 0.03 µg/mL
MIC (C. difficile; Clostridioides difficile, C. difficile NR-49295): ≤ 0.03 µg/mL
MIC (C. difficile; Clostridioides difficile, C. difficile NR-49296): ≤ 0.03 µg/mL
MIC (C. difficile; Clostridioides difficile, C. difficile NR-49297): 0.0125 µg/mL (≈ 0.0118 µM)
MIC (C. difficile; Clostridioides difficile, C. difficile NR-49300): 0.03 µg/mL (≈ 0.0284 µM)
MIC (C. difficile; Clostridioides difficile, C. difficile NR-49301): 0.03 µg/mL (≈ 0.0284 µM)
MIC (C. difficile; Clostridioides difficile, C. difficile NR-49303): 0.03 µg/mL (≈ 0.0284 µM)
MIC (C. difficile; Clostridioides difficile, C. difficile NR-49304): 0.06 µg/mL (≈ 0.0567 µM)
MIC (C. difficile; Clostridioides difficile, C. difficile NR-49306): 0.03 µg/mL (≈ 0.0284 µM)
MIC (C. difficile; Clostridioides difficile, C. difficile NR-49307): 0.03 µg/mL (≈ 0.0284 µM)
MIC (C. difficile; Clostridioides difficile, C. difficile NR-49309): 0.03 µg/mL (≈ 0.0284 µM)
MIC (C. difficile; Clostridioides difficile, C. difficile NR-49311): 0.03 µg/mL (≈ 0.0284 µM)
MIC (C. difficile; Clostridioides difficile, C. difficile NR-49313): 0.03 µg/mL (≈ 0.0284 µM)
MIC (C. difficile; Clostridioides difficile, C. difficile NR-49314): 0.25 µg/mL (≈ 0.236 µM)
MIC (C. difficile; Clostridioides difficile, C. difficile NR-49315): 0.06 µg/mL (≈ 0.0567 µM)
MIC (C. difficile; Clostridioides difficile, C. difficile NR-49317): 0.06 µg/mL (≈ 0.0567 µM)
MIC (C. difficile; Clostridioides difficile, C. difficile NR-49323): ≤ 0.03 µg/mL
MIC (C. difficile; Clostridioides difficile, C. difficile NR-49324): 0.06 µg/mL (≈ 0.0567 µM)
MIC (C. difficile; Clostridioides difficile, C. difficile NR-49325): 0.03 µg/mL (≈ 0.0284 µM)
MIC (C. difficile; Clostridioides difficile, C. difficile NR-49326): 0.03 µg/mL (≈ 0.0284 µM)
MIC (C. difficile; Clostridioides difficile, C. difficile NR-49327): 0.03 µg/mL (≈ 0.0284 µM)
MIC (C. difficile; Clostridioides difficile, C. difficile NR-49328): 0.03 µg/mL (≈ 0.0284 µM)
MIC (C. difficile; Clostridioides difficile, C. difficile NR-49329): 0.03 µg/mL (≈ 0.0284 µM)
MIC50 (C. difficile; Clostridioides difficile, 101 C. difficile strains): 0.06 µg/mL (≈ 0.0567 µM)
MIC90 (C. difficile; Clostridioides difficile, 101 C. difficile strains, read-out: MIC90 (101 strains)): 0.25 µg/mL (≈ 0.236 µM)
Selectivity (C. difficile; MIC MRSA NRS70/MIC C. difficile ATCC43255, Table 7): 128
MIC (MRSA (NRS70, NRS119); MRSA NRS70, Table 1): 8 µg/mL (≈ 7.56 µM)
MIC (MRSA (NRS70, NRS119); MRSA NRS70, Table 7): 8 µg/mL (≈ 7.56 µM)
MIC (MRSA (NRS70, NRS119); MRSA NRS119, Table 1): 2 µg/mL (≈ 1.89 µM)
MIC (S. aureus ATCC29213): 8 µg/mL (≈ 7.56 µM)
MIC (E. faecium NCTC7171): 2 µg/mL (≈ 1.89 µM)
MIC (Bacteroides fragilis; Table 1): > 32 µg/mL
MIC (Bacteroides fragilis; Table 7): > 32 µg/mL
MIC (Bifidobacterium longum; Table 1): < 0.01 µg/mL
MIC (Bifidobacterium longum; Table 7): < 0.01 µg/mL
MIC (Corynebacterium spp.; Table 1): < 0.06 µg/mL
MIC (Corynebacterium spp.; Table 7): < 0.0625 µg/mL
MIC (Fusobacterium nucleatum; Table 1): < 0.06 µg/mL
MIC (Fusobacterium nucleatum; Table 7): < 0.0625 µg/mL
MIC (Lactobacillus reuteri; Lactobacillus reuteri strain HM-102, Table 7): >32 µg/mL
MIC (Lactobacillus reuteri; Limosilactobacillus reuteri, Lactobacillus reuter strain HM-102, Table 1, read-out: MIC): > 32 µg/mL
MIC (Lactobacillus gasseri; Lactobacillus gasseri strain HM-644, Table 7): 2 µg/mL (≈ 1.89 µM)
MIC (Lactobacillus gasseri; Lactobacillus gasseri, Lactobacillus gasser strain HM-644, Table 1, read-out: MIC): 2 µg/mL (≈ 1.89 µM)
MIC (Veillonella sp. HM-49; SP.HM49, Veillonella sp. HM-49, Table 1, read-out: MIC): 8 µg/mL (≈ 7.56 µM)
MIC (Veillonella sp. HM-49; Veillonella sp. strain HM-49, Table 7): 8 µg/mL (≈ 7.56 µM)
MIC (Eubacterium sp.; Table 1): 16 µg/mL (≈ 15.1 µM)
MIC (Eubacterium sp.; Table 7): 16 µg/mL (≈ 15.1 µM)
